In general, EC50 refers to the concentration giving half of the maximal effect.

Data set [1] addresses KCa1.1 (BK) (Homo sapiens, UniProt Q12791). The data set can be described thus: Manual patch clamp in recombinant cell lines, BK. The class given is cell-based. The note with it: 10 μM; n = 4.
Data set [2] addresses T1, hTREK1 (Homo sapiens, UniProt O95069).
T1 sequence (O95069 1-426): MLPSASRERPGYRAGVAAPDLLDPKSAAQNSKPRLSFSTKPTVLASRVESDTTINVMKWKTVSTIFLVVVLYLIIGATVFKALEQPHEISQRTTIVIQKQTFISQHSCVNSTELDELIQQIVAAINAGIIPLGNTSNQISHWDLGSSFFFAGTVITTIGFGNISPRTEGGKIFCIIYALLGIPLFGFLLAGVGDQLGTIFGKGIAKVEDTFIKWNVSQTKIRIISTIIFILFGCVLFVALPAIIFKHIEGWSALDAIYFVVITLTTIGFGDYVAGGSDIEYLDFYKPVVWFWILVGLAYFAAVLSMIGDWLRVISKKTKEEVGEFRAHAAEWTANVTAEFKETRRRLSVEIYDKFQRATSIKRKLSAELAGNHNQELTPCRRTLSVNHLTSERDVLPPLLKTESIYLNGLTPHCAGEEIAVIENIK
The data set can be described thus: 86Rb efflux from CHO–hTREK1 cells. On the set-up: expressed in transfected cells. The class given is cell-based. To be noted: 60 min exposure, fit of logistic equation. On the procedure:
CHO–hTREK1 cells were plated on 96‐well, tissue culture‐treated clear plates (92 696) the day before the assay and incubated overnight at 37°C in the presence of 1 μCi·mL^−1 86Rubidium (Rb, NEZ072, Perkin Elmer, Waltham MA, USA). Prior to commencement of the assay, the ^86Rb spiked media were removed from the plate, and cells were washed four times with 100 μL of a 5 mM K^+ ‘Earle's balance salt solution’ (EBSS) buffer containing 135 mM NaCl, 5.4 mM KCl, 1.8 mM CaCl2, 0.8 mM MgCl2,10 mM HEPES and 5 mM glucose, pH 7.4 (adjusted with NaOH). […] Both counting plates were then read on the Wallac Microbeta to measure ^86Rb content [counts per min (CPM)]. % ^86Rb efflux values were calculated as follows: ^86Rbefflux%cell content=CPMin efflux buffer/CPMin efflux buffer+CPMin cell lysate*100.
Magnitude of ^86Rb efflux stimulation was calculated as follows: %Activation=%efflux test well−efflux in5.4mMK^+EBSS/Efflux in70mMK^+EBSS−efflux in5.4mMK^+EBSS*100.
Half maximal activation of ^86Rb efflux (EC50) value was calculated using IDBS Xlfit using a four‐parameter logistic equation and expressed as mean ± SEM.

Data set [3] deals with Kv11.1 (hERG) (Homo sapiens, UniProt Q12809). To be noted: 10 μM.
Sequence of Kv11.1 (hERG) (Q12809 whole entry): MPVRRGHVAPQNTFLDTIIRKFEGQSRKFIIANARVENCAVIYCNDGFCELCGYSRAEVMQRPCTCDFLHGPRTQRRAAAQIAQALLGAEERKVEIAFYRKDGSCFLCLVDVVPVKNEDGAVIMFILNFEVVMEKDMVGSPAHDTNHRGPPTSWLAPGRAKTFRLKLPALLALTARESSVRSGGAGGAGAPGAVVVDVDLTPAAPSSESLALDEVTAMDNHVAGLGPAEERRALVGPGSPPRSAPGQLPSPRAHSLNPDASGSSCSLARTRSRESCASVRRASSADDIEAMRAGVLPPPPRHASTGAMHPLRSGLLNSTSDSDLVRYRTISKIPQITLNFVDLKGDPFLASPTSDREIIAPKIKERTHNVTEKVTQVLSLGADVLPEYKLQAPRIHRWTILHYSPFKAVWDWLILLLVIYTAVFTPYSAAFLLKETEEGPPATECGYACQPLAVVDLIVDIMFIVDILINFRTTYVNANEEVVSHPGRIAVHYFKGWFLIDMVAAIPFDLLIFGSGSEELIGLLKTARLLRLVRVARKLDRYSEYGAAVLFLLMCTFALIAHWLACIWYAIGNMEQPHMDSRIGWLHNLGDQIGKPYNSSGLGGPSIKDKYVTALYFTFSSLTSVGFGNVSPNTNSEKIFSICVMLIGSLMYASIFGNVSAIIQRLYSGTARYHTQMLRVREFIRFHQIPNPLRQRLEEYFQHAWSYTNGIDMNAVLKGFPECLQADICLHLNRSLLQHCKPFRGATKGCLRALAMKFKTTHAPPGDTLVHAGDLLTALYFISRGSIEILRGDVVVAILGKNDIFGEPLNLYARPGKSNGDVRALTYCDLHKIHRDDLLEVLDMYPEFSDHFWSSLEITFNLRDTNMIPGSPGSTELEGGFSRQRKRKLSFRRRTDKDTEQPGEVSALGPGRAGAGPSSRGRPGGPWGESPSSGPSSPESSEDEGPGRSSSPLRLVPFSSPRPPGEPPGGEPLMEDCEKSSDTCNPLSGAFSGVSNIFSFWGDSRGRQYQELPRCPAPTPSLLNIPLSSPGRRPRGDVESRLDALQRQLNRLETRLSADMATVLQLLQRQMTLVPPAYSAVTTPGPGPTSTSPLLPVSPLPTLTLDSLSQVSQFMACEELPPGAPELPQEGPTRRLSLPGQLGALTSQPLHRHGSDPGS
The target in data set [4] is Kv7.1 (Homo sapiens, UniProt P51787). The data set can be described thus: Rb+ efflux assay, Kv7.1. It is filed as cell-based.
Data set [5] has as its system small rat DRG neurons. The data set can be described thus: Current-clamp recordings from small rat DRG neurones in short-term culture. It is filed as cell-based. The note with it: 1 μM. On the procedure:
Acutely dissociated rat DRG cells were obtained according to a previously described protocol (Passmore, 2005). All animal care and experimental procedures complied with guidelines and were approved by the Pfizer Neusentis Institutional Animal Use and Care Committee. Animal studies are reported in compliance with the ARRIVE guidelines (Kilkenny et al., 2010; McGrath and Lilley, 2015).Cells were plated on coated coverslips (poly‐D‐lysine/laminin, BD Biosciences, San Jose, CA, USA) prior to patching on the same day. Cells were perfused with an extracellular solution containing (in mM): 135 NaCl, 4.7 KCl, 1 CaCl2, 1 MgCl2, 10 HEPES and 10 glucose, pH 7.4, with NaOH (310 mOsmol·L^−1). Pipette solution contained (in mM): 130 KCl, 1 MgCl2, 5 MgATP, 10 HEPES and 5 EGTA, pH adjusted to 7.3 with KOH (290 mOsmol·L^−1). For whole‐cell recordings, currents were filtered at 2 kHz and sampled at 5 kHz. Series resistance was compensated for by up to 80%. For current‐clamp recordings, action potential firing and resting membrane potential (RMP) were recorded from small cells ([…]). GI‐530159 was dissolved in 0.3% DMSO as 10 mM stock and applied in the vicinity of cells using a gravity fed perfusion system (MSC‐200, Bio‐Logic SAS, Claix, France).

The target of data set [6] is T2, hTREK2 (Homo sapiens, UniProt P57789).
T2 construct: expressed in transfected cells; host or cells: tsA-201, transient, pcDNA3.1 vector
T2 sequence (P57789 whole entry): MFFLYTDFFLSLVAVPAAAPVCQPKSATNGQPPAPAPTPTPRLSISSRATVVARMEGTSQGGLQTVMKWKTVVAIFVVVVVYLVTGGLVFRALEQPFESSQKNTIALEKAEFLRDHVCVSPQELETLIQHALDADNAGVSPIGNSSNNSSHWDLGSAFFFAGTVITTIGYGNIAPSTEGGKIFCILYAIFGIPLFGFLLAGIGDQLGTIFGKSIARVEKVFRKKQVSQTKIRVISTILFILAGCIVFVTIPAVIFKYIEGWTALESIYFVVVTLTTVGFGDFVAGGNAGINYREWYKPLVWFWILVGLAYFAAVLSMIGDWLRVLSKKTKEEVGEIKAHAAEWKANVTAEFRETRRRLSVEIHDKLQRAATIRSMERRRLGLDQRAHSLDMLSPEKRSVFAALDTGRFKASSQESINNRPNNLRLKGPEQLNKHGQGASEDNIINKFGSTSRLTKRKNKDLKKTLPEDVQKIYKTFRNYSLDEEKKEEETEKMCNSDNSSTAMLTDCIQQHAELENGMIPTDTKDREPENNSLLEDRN
The data set can be described thus: Whole-cell patch clamp, transiently transfected tsA-201 cells, TREK2. The note with it: 1 μM, n = 6. The class given is cell-based. On the procedure: Recordings of hTREK1, hTREK1∆N, hTREK2, hTRAAK and […] currents from transiently transfected tsA‐201 cells were performed using methods as described in Veale and Mathie (2016). Briefly, the pcDNA3.1 vector was cloned with the gene of interest, and these vectors and a similar vector containing GFP were incorporated into the tsA201 cells (0.5 μg per well) using the calcium phosphate method. The cells were incubated for 6–12 h at 37°C in […] and 5% carbon dioxide. Cells were then washed using a PBS solution and used for experiments after 24 h.
Currents were recorded using whole‐cell patch‐clamp using an Axopatch 1D amplifier. Cells were placed in a recording chamber filled with an external medium composed of 145 mM, NaCl, 2.5 mM KCl, 3 mM MgCl2, 1 mM CaCl2 and 10 mM HEPES (pH to 7.4, using NaOH). The internal medium used in the glass pipette comprised 150 mM KCl, 3 mM MgCl2, 5 mM (or 0.1 mM) EGTA and 10 mM HEPES (pH to 7.4, using KOH). GI‐530159 was applied by bath perfusion. Currents were recorded and analysed using pCLAMP 10.2 software Microsoft Excel. The voltage protocol used for recording current through K2P channels was as previously described (Veale and Mathie, 2016). For analysis, we measured the current difference between the −80 and −40 mV steps.

Where [7] appears, read: 15 pA depolarizing current injection, of the 14 cells tested.

Sequence of KCa1.1 (BK) (Q12791 whole entry, species assumed): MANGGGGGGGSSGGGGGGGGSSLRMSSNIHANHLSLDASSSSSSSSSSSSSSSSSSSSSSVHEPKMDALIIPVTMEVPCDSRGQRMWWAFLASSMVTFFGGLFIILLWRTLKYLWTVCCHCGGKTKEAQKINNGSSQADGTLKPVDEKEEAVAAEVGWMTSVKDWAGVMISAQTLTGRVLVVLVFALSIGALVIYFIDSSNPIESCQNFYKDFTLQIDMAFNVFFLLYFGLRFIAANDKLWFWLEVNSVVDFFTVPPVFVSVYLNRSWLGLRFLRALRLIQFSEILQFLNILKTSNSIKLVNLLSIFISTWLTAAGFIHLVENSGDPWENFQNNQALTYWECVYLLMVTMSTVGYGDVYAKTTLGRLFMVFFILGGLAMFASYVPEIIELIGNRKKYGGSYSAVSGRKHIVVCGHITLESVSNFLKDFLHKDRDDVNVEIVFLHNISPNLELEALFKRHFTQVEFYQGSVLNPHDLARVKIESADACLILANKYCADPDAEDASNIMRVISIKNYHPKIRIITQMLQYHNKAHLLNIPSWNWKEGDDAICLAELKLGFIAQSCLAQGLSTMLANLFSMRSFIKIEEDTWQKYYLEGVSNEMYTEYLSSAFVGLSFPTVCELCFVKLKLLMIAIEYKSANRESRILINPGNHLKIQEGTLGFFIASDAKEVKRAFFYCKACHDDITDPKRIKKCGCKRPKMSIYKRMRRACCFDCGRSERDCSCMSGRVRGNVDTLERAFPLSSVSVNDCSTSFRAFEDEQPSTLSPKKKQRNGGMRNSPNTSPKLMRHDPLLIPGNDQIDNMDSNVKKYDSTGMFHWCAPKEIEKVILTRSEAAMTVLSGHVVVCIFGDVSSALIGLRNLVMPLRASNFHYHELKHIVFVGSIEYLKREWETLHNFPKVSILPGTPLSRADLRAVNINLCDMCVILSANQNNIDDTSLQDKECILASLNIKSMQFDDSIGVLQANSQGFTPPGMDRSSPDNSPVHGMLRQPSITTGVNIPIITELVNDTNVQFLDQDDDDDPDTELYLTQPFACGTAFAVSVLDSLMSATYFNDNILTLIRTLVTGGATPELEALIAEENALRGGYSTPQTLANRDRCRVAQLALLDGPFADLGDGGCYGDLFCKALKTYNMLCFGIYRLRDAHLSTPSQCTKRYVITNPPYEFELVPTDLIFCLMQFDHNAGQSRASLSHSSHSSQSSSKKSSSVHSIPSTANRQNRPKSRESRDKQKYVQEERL

`Nc1ccc(Oc2ccc(C(c3ccc(Oc4ccc(N)cc4)cc3)(C(F)(F)F)C(F)(F)F)cc2)cc1` [GI‐530159, 4,4′‐(hexafluoroisopropylidene)bis(p‐phenyleneoxy)dianiline]: the “effect on KCa1.1 (BK) current” value in data set [1] is −3.3 ± 6.7%. Moreover, the EC50 in data set [2] (read-out: EC50 for stimulation of 86Rb efflux) amounted to 760 ± 100 nM. Also, the Emax in data set [2] (normalized to 70 mM K, read-out: maximum effect on 86Rb efflux, % of that seen with 70 mM K) turned out to be 142 ± 2%. Besides, the “effect on Kv11.1 (hERG) current” value in data set [3] is recorded as −7.3 ± 5.1%. For the same compound, the “activator effect on Kv7.1” value in data set [4] is recorded as “no activator effects”. Besides, in data set [5] (14 cells tested), the “share of cells with firing frequency reduced or abolished” value is on record as 57% and the “share of neurons with firing unaltered / unaffected” value amounted to 43%. For the same compound, in data set [5] (setting [7]), the “cells with a reduction in firing frequency” value is given as “two”, the “cells with complete abolition in firing frequency” value is “six” and the “neurons with firing unaltered” value was “six”. Also, in data set [5] (n = 7 rats, from −54.0 ± 2.0 mV, P < 0.05), the “resting membrane potential after application, averaged per rat” value was −57.8 ± 1.4 mV. Moreover, in data set [5] (n = 14 individual neurons, from −53.6 ± 1.5 mV, P < 0.05), the “resting membrane potential after application” value is on record as −57.1 ± 1.5 mV. Also, the “enhancement of TREK2 current” value in data set [6] was determined as 42 ± 6%.

For the origin of these results see publication PMC5980259, “GI‐530159, a novel, selective, mechanosensitive two‐pore‐domain potassium (K2P) channel opener, reduces rat dorsal root ganglion neuron excitability” (British Journal of Pharmacology, 2017).
